Assay results: PMC5814585, “Modulators of actin-myosin dissociation: basis for muscle type functional differences during fatigue” (American Journal of Physiology - Cell Physiology, 2017)
Several values for one entry are separate records, joined by “and”; a condition that tells them apart may be missing. Equal entries are not always repeated.

Columns and labels:
actin.MassS1 [1] = biological target: T1, actin.MassS1 (Bos taurus, UniProt Q9BE39); experiment: ADP dissociation constant (KADP) by competitive inhibition of ATP-induced dissociation, masseter; format: binding, bovine; conditions: for kobs of ATP-induced dissociation with ADP present: 25 µM ATP, 20°C, pH 7.0
T1 construct: from tissue; host or cells: bovine masseter muscle (myosin); rabbit muscle (actin)
Protocol: (§1) In a similar process, ADP dissociation constant (KADP), which defines ADP affinity for actin.S1, was measured by adding to the mixture ADP as a competitive inhibitor of ATP binding. In this case it is convenient to add the ADP to the ATP solution, i.e., 0.5 µM pyr.actin.S1 was mixed with 25 µM ATP with various concentrations of ADP present with the ATP (from 0 to 1200 µM). This approach assumes that ADP is in rapid equilibrium with the actin.S1 complex on the time scale of the ATP-induced dissociation reaction. This was ensured by using the low (25 µM) concentration of ATP. That this assumption holds was tested by repeating the measurement with ADP preincubated with actin.S1 and then mixing with ATP. The observed rate constants were identical in each case.
(§2) (4)) kobs=K1k+2[ATP]/[1+([I]/KI)]

actin.MassS1 [2] = biological target: T1, actin.MassS1; parameters: method as in Bloemink et al. (4); conditions: ref Bloemink et al. (4); cited from earlier work
actin.MassS1 [3] = biological target: T1, actin.MassS1; experiment: ADP dissociation constant in the presence of phosphate (KADP+Pi) and calculated KPi app, masseter; format: binding, bovine; conditions: 15 mM Pi
actin.PsoS1 [4] = experiment: ADP dissociation constant in the presence of phosphate (KADP+Pi) and calculated KPi app, psoas; format: binding, rabbit; conditions: 30 mM Pi
actin.PsoS1 [5] = experiment: ADP dissociation constant (KADP) by competitive inhibition of ATP-induced dissociation, psoas; format: binding, rabbit; conditions: for kobs of ATP-induced dissociation with ADP present: 25 µM ATP, 20°C
Protocol: as §1, with “In this case it is convenient to add the ADP to the ATP solution, i.e., 0.5 µM pyr.actin.S1 was mixed with 25 µM ATP with various concentrations of ADP present with the ATP (from 0 to 1200 µM).” left out
as §2

actin.MassS1 [6] = biological target: T1, actin.MassS1; experiment: ADP release rate constant (k-AD), ADP displacement by excess ATP; format: biochemical, bovine; parameters: effect of Pi on kobs of ADP release / increase in kobs of ADP release in the presence of phosphate / activation energy (Ea) of k−AD (ADP release): dose or concentration left out as unconfirmed; conditions: for kobs of ADP release (fast phase): 75 µM ADP displaced by 8 mM ATP; for activation energy (Ea) of k−AD (ADP release): Mass
Protocol: Two types of myosins were studied which are known to differ in their dissociation constant for nucleotides ([5], [51]). The rate constant for the release of ADP (k−ADP) is relatively slow for masseter S1 and can easily be measured in an ADP displacement experiment. This step is very fast for a fast muscle isoform and too fast to measure by current equipment. Briefly, actin.^MassS1 saturated with 75 µM of ADP (A.M.D complex) was mixed with a large excess of ATP (8 mM) in the stopped flow. Then the kobs values, fitted to a single exponential equation (Eqn 1) defined the rate constant by which ADP is released by the ternary A.M.D complex (k−AD).
The temperature dependence of the above studied biochemical steps K1k+2, KADP, KPi, and KADP+Pi data were plotted as the natural logarithm of the measured parameter against the reciprocal of temperature in degrees Kelvin (1/T °K) and fitted with linear regression using the Arrhenius (rate constants) or Van’t Hoff (equilibrium constants) equations(7)) lnK1k+2=ln(A)−Ea/RT (8)) lnKeq=ΔS°/R−ΔH°/RT where Ea stands for activation energy, R is the gas constant, and A is a preexponential factor. The values of –Ea/R or or ΔH°/R were derived from the slopes.

## Nc1ncnc2c1ncn2[C@@H]1O[C@H](COP(=O)(O)OP(=O)(O)O)[C@@H](O)[C@H]1O [ADP]
actin.MassS1 [1]; 25 µM ADP
  kobs of ATP-induced dissociation with ADP present: 21.7 s⁻¹
actin.MassS1 [1]; 100 µM ADP
  kobs of ATP-induced dissociation with ADP present: 9.1 s⁻¹
actin.MassS1 [1]; 500 µM ADP
  kobs of ATP-induced dissociation with ADP present: 2.6 s⁻¹
actin.MassS1 [1]; MassS1, 30°C
  weakening of KADP at pH 6.2 vs pH 7.0: 1.5 fold
actin.MassS1 [1]; Masseter S1, pH 6.2, 10°C
  Kd: 22 µM and 21.8 µM
actin.MassS1 [1]; Masseter S1, pH 6.2, 20°C
  Kd: 48.4 µM and 47 µM and 46.8 µM
actin.MassS1 [1]; Masseter S1, pH 6.2, 30°C
  Kd: 83.9 ± 4.7 µM
actin.MassS1 [1]; Masseter S1, pH 7.0, 10°C
  Kd: 9.6 µM and 10 µM and 10.3 µM
actin.MassS1 [1]; Masseter S1, pH 7.0, 20°C
  Kd: 31 µM and 31.3 µM and 29.7 µM
actin.MassS1 [1]; Masseter S1, pH 7.0, 30°C
  Kd: 56.2 ± 6.5 µM
actin.MassS1 [2]
  kobs of ADP release, published result: 94 s⁻¹
actin.MassS1 [3]; Masseter S1, pH 6.2, 10°C
  Kd: 52.2 ± 4.2 µM
actin.MassS1 [3]; Masseter S1, pH 6.2, 20°C
  Kd: 82.6 ± 5.7 µM
actin.MassS1 [3]; Masseter S1, pH 6.2, 30°C
  Kd: 175 µM
actin.MassS1 [3]; Masseter S1, pH 7.0, 10°C
  Kd: 22.5 ± 2.9 µM
actin.MassS1 [3]; Masseter S1, pH 7.0, 20°C
  Kd: 44.4 ± 4.6 µM
actin.MassS1 [3]; Masseter S1, pH 7.0, 30°C
  Kd: 79.3 ± 6.5 µM
actin.PsoS1 [4]; Psoas S1, pH 6.2, 10°C, read-out: KADP+Pi
  Kd: 665 ± 39 µM
actin.PsoS1 [4]; Psoas S1, pH 6.2, 20°C, read-out: KADP+Pi
  Kd: 514 µM
actin.PsoS1 [4]; Psoas S1, pH 6.2, 30°C, read-out: KADP+Pi
  Kd: 926 ± 73 µM
actin.PsoS1 [4]; Psoas S1, pH 7.0, 10°C, read-out: KADP+Pi
  Kd: 770 ± 37 µM
actin.PsoS1 [4]; Psoas S1, pH 7.0, 20°C, read-out: KADP+Pi
  Kd: 919 ± 72 µM
actin.PsoS1 [4]; Psoas S1, pH 7.0, 30°C, read-out: KADP+Pi
  Kd: 942 µM and 1020 µM
actin.PsoS1 [4]; psoas, 10–20°C, pH 7.0, read-out: apparent KADP in the presence of Pi
  Kd: ~500 µM
actin.PsoS1 [5]; 0.25 mM ADP, pH 7.0
  kobs of ATP-induced dissociation with ADP present: 45.9 s⁻¹
actin.PsoS1 [5]; 1 mM ADP, pH 7.0
  kobs of ATP-induced dissociation with ADP present: 21.4 s⁻¹
actin.PsoS1 [5]; 4 mM ADP, pH 7.0
  kobs of ATP-induced dissociation with ADP present: 14.5 s⁻¹
actin.PsoS1 [5]; Psoas S1, pH 6.2, 10°C, read-out: KADP
  Kd: 256 ± 32 µM
actin.PsoS1 [5]; Psoas S1, pH 6.2, 20°C, read-out: KADP
  Kd: 228 ± 36 µM
actin.PsoS1 [5]; Psoas S1, pH 6.2, 30°C, read-out: KADP
  Kd: 236 ± 29 µM
actin.PsoS1 [5]; Psoas S1, pH 7.0, 10°C, read-out: KADP
  Kd: 201 ± 34 µM
actin.PsoS1 [5]; Psoas S1, pH 7.0, 20°C, read-out: KADP
  Kd: 203 ± 13 µM
actin.PsoS1 [5]; Psoas S1, pH 7.0, 30°C, read-out: KADP
  Kd: 232 ± 29 µM
actin.PsoS1 [5]; psoas actin.S1, between 10 and 30°C, pH 7.0, read-out: ADP affinity (KADP)
  Kd: ~200 µM
actin.MassS1 [6]; pH 7.0, 5°C
  kobs of ADP release (fast phase): 16.2 s⁻¹
actin.MassS1 [6]; pH 7.0, 10°C
  kobs of ADP release (fast phase): 26.0 s⁻¹
actin.MassS1 [6]; pH 7.0, 20°C
  kobs of ADP release (fast phase): 85 s⁻¹ and 85.0 s⁻¹
actin.MassS1 [6]; pH 7.0, 30°C
  kobs of ADP release (fast phase): 273 s⁻¹
actin.MassS1 [6]; pH 7.0, […]°C
  kobs of ADP release (fast phase): 46.3 s⁻¹
actin.MassS1 [6]; pH 6.2, + […] mM Pi
  activation energy (Ea) of k−AD (ADP release): 21.2 ± 0.932 kcal/mol
actin.MassS1 [6]; pH 6.2, no Pi
  activation energy (Ea) of k−AD (ADP release): 20.2 ± 1.46 kcal/mol
actin.MassS1 [6]; pH 7.0, + […] mM Pi
  activation energy (Ea) of k−AD (ADP release): 22.6 ± 1.2 kcal/mol
actin.MassS1 [6]; pH 7.0, no Pi
  activation energy (Ea) of k−AD (ADP release): 18.1 ± 0.98 kcal/mol
